The text below walks through data of patent publication US20250282768A1 (Janssen Pharmaceutica NV, priority 2022, published 2025).

The subject of this assay is p-IKKa levels in L363 (NIK translocated multiple myeloma) cells. As to the kind of experiment: Assay 2: Effect of compounds on p-IKKa levels in L363 (NIK translocated multiple myeloma) cells. In kind it is cell-based. The note with it: Homo sapiens, L-363, 6 h, read-out: Assay 2 IC50 (nM), p-IKKa (Ser 176/180) in BAFF stimulated L363 cells with MG132, 6 h; average if tested more than once. The method in brief: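 L363 cells incubated overnight ± 250 ng/ml BAFF, then 6 h at 37 °C with compound (0.3% DMSO) ± 10 μM MG132. Lysates assayed for p-IKKa (Ser176/180) by AlphaLISA SureFire. IC50 from sigmoidal fit of % inhibition normalized to BAFF/MG132-stimulated and unstimulated controls.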
For `CN1CC[C@@](O)(c2cc(-c3cccc(-c4ccnc(Nc5ncnc6c5COCC6)n4)n3)no2)C1=O` [Example 310, (R)-3-(3-(6-(2-((7,8-Dihydro-5H-pyrano[4,3-d]pyrimidin-4-yl)amino)pyrimidin-4-yl)pyridin-2-yl)isoxazol-5-yl)-3-hydroxy-1-methylpyrrolidin-2-one], the IC50 is above 500 nM.

With `COCn1ncc(Nc2nccc(-c3cccc(-c4cc([C@]5(O)CCN(C)C5=O)on4)n3)n2)n1` [Example 311, (R)-3-Hydroxy-3-(3-(6-(2-((2-(methoxymethyl)-2H-1,2,3-triazol-4-yl)amino)pyrimidin-4-yl)pyridin-2-yl)isoxazol-5-yl)-1-methylpyrrolidin-2-one], the IC50 was below 50 nM.

Turning to `CN1CC[C@@](O)(c2cc(-c3cccc(-c4ccnc(Nc5ccn(C6COC6)n5)n4)n3)no2)C1=O` [Example 312, (R)-3-Hydroxy-1-methyl-3-(3-(6-(2-((1-(oxetan-3-yl)-1H-pyrazol-3-yl)amino)pyrimidin-4-yl)pyridin-2-yl)isoxazol-5-yl)pyrrolidin-2-one], the IC50 is below 50 nM.

On to `CN1CC[C@@](O)(c2cc(-c3cccc(-c4ccnc(Nc5cnc6n5CCOC6)n4)n3)no2)C1=O` [Example 313, (R)-3-(3-(6-(2-((5,6-Dihydro-8H-imidazo[2,1-c][1,4]oxazin-3-yl)amino)pyrimidin-4-yl)pyridin-2-yl)isoxazol-5-yl)-3-hydroxy-1-methylpyrrolidin-2-one], for which the IC50 is above 500 nM.

In the case of `CN1CC[C@@](O)(c2cc(-c3cccc(-c4ccnc(Nc5cnc6n5CCOCC6)n4)n3)no2)C1=O` [Example 314, (R)-3-Hydroxy-1-methyl-3-(3-(6-(2-((5,6,8,9-tetrahydroimidazo[1,2-d][1,4]oxazepin-3-yl)amino)pyrimidin-4-yl)pyridin-2-yl)isoxazol-5-yl)pyrrolidin-2-one], the IC50 is above 500 nM.

In the case of `CN1CC[C@@](O)(c2cc(-c3cccc(-c4ccnc(Nc5ncn6ccnc6n5)n4)n3)no2)C1=O` [Example 315, (R)-3-Hydroxy-3-(3-(6-(2-(imidazo[1,2-a][1,3,5]triazin-2-ylamino)pyrimidin-4-yl)pyridin-2-yl)isoxazol-5-yl)-1-methylpyrrolidin-2-one], the IC50 is above 500 nM.

As for `CN1CC[C@@](O)(c2cc(-c3cccc(-c4ccnc(Nc5ncc(CO)cn5)n4)n3)no2)C1=O` [Example 316, (R)-3-Hydroxy-3-(3-(6-(2-((5-(hydroxymethyl)pyrimidin-2-yl)amino)pyrimidin-4-yl)pyridin-2-yl)isoxazol-5-yl)-1-methylpyrrolidin-2-one], the IC50 was above 500 nM.

Turning to `COc1cccnc1Nc1nccc(-c2cccc(-c3cc([C@]4(O)CCN(C)C4=O)on3)n2)n1` [Example 317, (R)-3-Hydroxy-3-(3-(6-(2-((3-methoxypyridin-2-yl)amino)pyrimidin-4-yl)pyridin-2-yl)isoxazol-5-yl)-1-methylpyrrolidin-2-one], the IC50 was above 500 nM.

On to `CN1CC[C@@](O)(c2cc(-c3cccc(-c4ccnc(Nc5ncn(C)n5)n4)n3)no2)C1=O` [Example 318, (R)-3-Hydroxy-1-methyl-3-(3-(6-(2-((1-methyl-1H-1,2,4-triazol-3-yl)amino)pyrimidin-4-yl)pyridin-2-yl)isoxazol-5-yl)pyrrolidin-2-one], for which the IC50 is above 500 nM.

Take `Cc1nnc(Nc2nccc(-c3cccc(-c4cc([C@]5(O)CCN(C)C5=O)on4)n3)n2)o1` [Example 319, (R)-3-Hydroxy-1-methyl-3-(3-(6-(2-((5-methyl-1,3,4-oxadiazol-2-yl)amino)pyrimidin-4-yl)pyridin-2-yl)isoxazol-5-yl)pyrrolidin-2-one]: the IC50 was above 500 nM.

`CN1CC[C@@](O)(c2cc(-c3cccc(-c4ccnc(Nc5ccnc(N6CCOCC6)c5)n4)n3)no2)C1=O` [Example 320]: the IC50 is below 50 nM.

In the case of `CN1CC[C@@](O)(c2cc(-c3cccc(-c4ccnc(Nc5nnnn5C)n4)n3)no2)C1=O` [Example 321, (R)-3-Hydroxy-1-methyl-3-(3-(6-(2-((1-methyl-1H-tetrazol-5-yl)amino)pyrimidin-4-yl)pyridin-2-yl)isoxazol-5-yl)pyrrolidin-2-one], the IC50 is above 500 nM.

As for `COc1cccc(Nc2nccc(-c3cccc(-c4cc([C@]5(O)CCN(C)C5=O)on4)n3)n2)n1` [Example 322, (R)-3-Hydroxy-3-(3-(6-(2-((6-methoxypyridin-2-yl)amino)pyrimidin-4-yl)pyridin-2-yl)isoxazol-5-yl)-1-methylpyrrolidin-2-one], the IC50 was 50 to 500 nM.

In the case of `CN1CC[C@@](O)(c2cc(-c3cccc(-c4ccnc(Nc5cn(C)cn5)n4)n3)no2)C1=O` [Example 323, (R)-3-Hydroxy-1-methyl-3-(3-(6-(2-((1-methyl-1H-imidazol-4-yl)amino)pyrimidin-4-yl)pyridin-2-yl)isoxazol-5-yl)pyrrolidin-2-one], the IC50 was in the range of 50 to 500 nM.

As for `CN1CC[C@@](O)(c2cc(-c3cccc(-c4ccnc(Nc5nnc(C(F)F)o5)n4)n3)no2)C1=O` [Example 324, (R)-3-(3-(6-(2-((5-(Difluoromethyl)-1,3,4-oxadiazol-2-yl)amino)pyrimidin-4-yl)pyridin-2-yl)isoxazol-5-yl)-3-hydroxy-1-methylpyrrolidin-2-one], the IC50 is above 500 nM.

On to `CN1CC[C@@](O)(c2cn(-c3cccc(-c4ccnc(Nc5cn(C)nc5F)n4)n3)nn2)C1=O` [Example 325, (R)-3-(1-(6-(2-((3-Fluoro-1-methyl-1H-pyrazol-4-yl)amino)pyrimidin-4-yl)pyridin-2-yl)-1H-1,2,3-triazol-4-yl)-3-hydroxy-1-methylpyrrolidin-2-one], for which the IC50 was 50 to 500 nM.

With `Cc1nccc(Nc2nccc(-c3cccc(-n4cc([C@]5(O)CCN(C)C5=O)nn4)n3)n2)c1F` [Example 326, (R)-3-(1-(6-(2-((3-Fluoro-2-methylpyridin-4-yl)amino)pyrimidin-4-yl)pyridin-2-yl)-1H-1,2,3-triazol-4-yl)-3-hydroxy-1-methylpyrrolidin-2-one], the IC50 was below 50 nM.

With `CN1CC[C@@](O)(c2cn(-c3cccc(-c4ccnc(Nc5cnn(C)c5Cl)n4)n3)nn2)C1=O` [Example 327, (R)-3-(1-(6-(2-((5-Chloro-1-methyl-1H-pyrazol-4-yl)amino)pyrimidin-4-yl)pyridin-2-yl)-1H-1,2,3-triazol-4-yl)-3-hydroxy-1-methylpyrrolidin-2-one], the IC50 is below 50 nM.

Take `CN1CC[C@@](O)(c2cc(-c3cccc(-c4ccnc(Nc5cnn(C)c5F)n4)n3)no2)C1=O` [Example 329, (R)-3-(3-(6-(2-((5-Fluoro-1-methyl-1H-pyrazol-4-yl)amino)pyrimidin-4-yl)pyridin-2-yl)isoxazol-5-yl)-3-hydroxy-1-methylpyrrolidin-2-one]: the IC50 is below 50 nM.

Turning to `CN1CC[C@@](O)(c2cc(-c3cccc(-c4ccnc(Nc5ccncc5F)n4)n3)no2)C1=O` [Example 330, (R)-3-(3-(6-(2-((3-Fluoropyridin-4-yl)amino)pyrimidin-4-yl)pyridin-2-yl)isoxazol-5-yl)-3-hydroxy-1-methylpyrrolidin-2-one], the IC50 was below 50 nM.

`CN1CC[C@@](O)(c2cc(-c3cccc(-c4ccnc(Nc5ncccc5F)n4)n3)no2)C1=O` [Example 331, (R)-3-(3-(6-(2-((3-Fluoropyridin-2-yl)amino)pyrimidin-4-yl)pyridin-2-yl)isoxazol-5-yl)-3-hydroxy-1-methylpyrrolidin-2-one]: the IC50 was above 500 nM.
